According to US12043600B2, “Microbiocidal compounds” (SYNGENTA CROP PROTECTION AG, priority 2018, dated 2024):

Experiments:
[1] = system: Monographella nivalis (Microdochium nivale); experiment: Monographella nivalis (Microdochium nivale)/Liquid Culture (Foot Rot Cereals); type: cell-based; details: liquid culture, compared to untreated control
How it was run: (§1)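 Conidia from cryogenic storage were mixed directly into potato dextrose broth, then added to microtiter wells already holding the test compound dissolved in DMSO. Fungal growth in liquid culture was then assessed.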

[2] = system: Phaeosphaeria nodorum (Septoria nodorum); experiment: Phaeosphaeria nodorum (Septoria nodorum)/Wheat/Leaf Disc Preventative (Glume Blotch); type: in vivo; details: Parastagonospora nodorum, foliar, wheat leaf disc preventative, compared to untreated control
How it was run: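 Wheat cv. Kanzler leaf discs on agar were sprayed with formulated compound diluted in water and inoculated with P. nodorum spores 2 days later. Discs kept at 20 °C, 75% rh, 12 h light/dark; percent disease control versus untreated scored 5–7 days after application.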

Phytophthora infestans = experiment: whole plant or invertebrate; type: in vivo; details: in Solanum lycopersicum, foliar, read-out: control of Phytophthora infestans
[3] = system: Magnaporthe grisea (Pyricularia oryzae); experiment: whole plant or invertebrate; type: in vivo; details: foliar, read-out: control of Magnaporthe grisea
[4] = system: Thanatephorus cucumeris (Rhizoctonia solani); experiment: Thanatephorus cucumeris (Rhizoctonia solani)/Liquid Culture (Foot Rot, Damping-Off); type: cell-based; details: liquid culture, compared to untreated control
Experimental: Mycelia fragments of a newly grown liquid culture of the fungus are directly mixed into nutrient broth (PDB potato dextrose broth). After placing a (DMSO) solution of the test compounds into a microtiter plate (96-well format), the nutrient broth containing the fungal material is added.

[5] = system: Botryotinia fuckeliana (Botrytis cinerea); experiment: Botryotinia fuckeliana (Botrytis cinerea)/Liquid Culture (Gray Mould); type: cell-based; details: liquid culture, compared to untreated control
Experimental: Conidia of the fungus from cryogenic storage are directly mixed into nutrient broth (Vogels broth). After placing a (DMSO) solution of test compound into a microtiter plate (96-well format), the nutrient broth containing the fungal spores is added.

[6] = system: Glomerella lagenarium (Colletotrichum lagenarium); experiment: Glomerella lagenarium (Colletotrichum lagenarium)/Liquid Culture (Anthracnose); type: cell-based; details: Colletotrichum orbiculare, liquid culture, compared to untreated control
[7] = system: Puccinia recondita f. sp. tritici; experiment: Puccinia recondita f. sp. tritici/Wheat/Leaf Disc Curative (Brown Rust); type: in vivo; details: foliar, wheat leaf disc curative, compared to untreated control
How it was run: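 Curative leaf-disc test on wheat cv. Kanzler segments on agar, spore-inoculated and kept dark at 19° C, 75% rh; formulated compound in water applied 1 day after inoculation. Incubated at 19° C, 75% rh, 12 h light/12 h dark; percent disease control versus untreated scored 6-8 days after application.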

[8] = system: Mycosphaerella arachidis (Cercospora arachidicola); experiment: Mycosphaerella arachidis (Cercospora arachidicola)/Liquid Culture (Early Leaf Spot); type: cell-based; details: liquid culture, compared to untreated control
How it was run: as §1

[9] = system: Mycosphaerella graminicola (Septoria tritici); experiment: Mycosphaerella graminicola (Septoria tritici)/Liquid Culture (Septoria Blotch); type: cell-based; details: Zymoseptoria tritici; 20 ppm; liquid culture; compared to untreated control
How it was run: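 Conidia from cryogenic storage mixed into potato dextrose broth and added to microtiter wells already holding DMSO solutions of test compound. Activity expressed as percentage disease control.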

[10] = system: Puccinia recondita f. sp. tritici; experiment: Puccinia recondita f. sp. tritici/Wheat/Leaf Disc Preventative (Brown Rust); type: in vivo; details: foliar, 200 ppm, wheat leaf disc preventative, compared to untreated control, read-out: control of Puccinia recondita f. sp. tritici
Plasmopara viticola = experiment: whole plant or invertebrate; type: in vivo; details: foliar, read-out: control of Plasmopara viticola
[11] = system: Blumeria graminis f. sp. tritici (Erysiphe graminis f. sp. tritici); experiment: Blumeria graminis f. sp. tritici/Wheat/Leaf Disc Preventative (Powdery Mildew on Wheat); type: in vivo; details: foliar, wheat leaf disc preventative, compared to untreated control
How it was run: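 Wheat cv. Kanzler leaf segments on agar sprayed with formulated compound, inoculated with powdery mildew 1 day later and held at 20° C, 60% rh (24 h dark, then 12 h light/12 h dark). Percent disease control versus untreated scored 6-8 days after application.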

Pyrenophora teres = experiment: Pyrenophora teres/Barley/Leaf Disc Preventative (Net Blotch); type: in vivo; details: foliar, 200 ppm, barley leaf disc preventative, compared to untreated control, read-out: control of Pyrenophora teres
How it was run: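 Formulated compound, diluted in water, sprayed onto barley cv. Hasso leaf segments on agar; spore suspension inoculation followed 2 days after application. Results expressed as percentage disease control.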

Alternaria solani = experiment: Alternaria solani/Tomato/Leaf Disc (Early Blight); type: in vivo; details: foliar, tomato leaf disc, compared to untreated control
How it was run: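 Tomato cv. Baby leaf disks on agar were sprayed with diluted formulated compound and inoculated with spores 2 days later. Incubation at 23° C./21° C. day/night, 80% rh, 12/12 h light; percent disease control versus untreated scored 5-7 days after application.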

Phakopsora pachyrhizi = experiment: Phakopsora pachyrhizi/Soybean/Preventative (Soybean Rust); type: in vivo; details: foliar, 288 h, 200 ppm, soybean leaf disc preventative, compared to untreated control, read-out: control of Phakopsora pachyrhizi

Structure (SMILES) | inhibition of growth at 20 ppm [1] [%] | pest or weed control at 200 ppm [2] [%] | pest or weed control at 200 ppm (Phytophthora infestans) [%] | pest or weed control at 200 ppm [3] [%] | inhibition of growth at 20 ppm [4] [%] | inhibition of growth at 20 ppm [5] [%] | inhibition of growth at 20 ppm [6] [%] | pest or weed control at 200 ppm [7] [%] | inhibition of growth at 20 ppm [8] [%] | inhibition of growth at 20 ppm [9] [%] | pest or weed control at 200 ppm [10] [%] | pest or weed control at 200 ppm (Plasmopara viticola) [%] | pest or weed control at 200 ppm [11] [%] | melting point [°C] | pest or weed control at 200 ppm (Pyrenophora teres) [%] | pest or weed control at 200 ppm (Alternaria solani) [%] | pest or weed control at 200 ppm (Phakopsora pachyrhizi) [%]
CO/C=C(\Oc1cc(-n2ccc(C(C)C)n2)c(OC)cc1C)C(=O)OC [Compound E-31, methyl (Z)-2-[5-(3-isopropylpyrazol-1-yl)-4-methoxy-2-methyl-phenoxy]-3-methoxy-prop-2-enoate] | ≥ 80 | ≥ 80 | ≥ 80 | ≥ 80 | ≥ 80 | ≥ 80 | ≥ 80 | ≥ 80 | ≥ 80 | ≥ 80 | ≥ 80 | ≥ 80 |  |  |  |  | 
CO/C=C(\Oc1cc(-n2ccc(C(F)(F)F)n2)c(OC)cc1C)C(=O)OC [Compound E-32, methyl (Z)-3-methoxy-2-[4-methoxy-2-methyl-5-[3-(trifluoromethyl)pyrazol-1-yl]phenoxy]prop-2-enoate] | ≥ 80 | ≥ 80 | ≥ 80 | ≥ 80 | ≥ 80 | ≥ 80 | ≥ 80 | ≥ 80 | ≥ 80 | ≥ 80 | ≥ 80 | ≥ 80 | ≥ 80 | 130 to 133 |  |  | 
C/C=C/c1ccn(-c2ccc(C)c(O/C(=C\OC)C(=O)OC)c2)n1 [Compound E-38, methyl (Z)-3-methoxy-2-[2-methyl-5-[3-[(E)-prop-1-enyl]pyrazol-1-yl]phenoxy]prop-2-enoate] | ≥ 80 |  | ≥ 80 | ≥ 80 | ≥ 80 | ≥ 80 | ≥ 80 | ≥ 80 | ≥ 80 | ≥ 80 | ≥ 80 | ≥ 80 | ≥ 80 | 110 to 112 | ≥ 80 |  | 
C/C=C(\C)c1ccn(-c2ccc(C)c(O/C(=C\OC)C(=O)OC)c2)n1 [Compound E-43, methyl (Z)-3-methoxy-2-[2-methyl-5-[3-[(E)-1-methylprop-1-enyl]pyrazol-1-yl]phenoxy]prop-2-enoate] | ≥ 80 |  | ≥ 80 | ≥ 80 | ≥ 80 | ≥ 80 | ≥ 80 | ≥ 80 | ≥ 80 | ≥ 80 | ≥ 80 | ≥ 80 |  | 115 to 118 |  |  | 
C=Cc1ccn(-c2ccc(C)c(O/C(=C\OC)C(=O)OC)c2)n1 [Compound E-45, methyl (Z)-3-methoxy-2-[2-methyl-5-(3-vinylpyrazol-1-yl)phenoxy]prop-2-enoate] | ≥ 80 | ≥ 80 | ≥ 80 | ≥ 80 | ≥ 80 |  | ≥ 80 | ≥ 80 | ≥ 80 | ≥ 80 | ≥ 80 | ≥ 80 | ≥ 80 | 114 to 117 | ≥ 80 |  | 
CO/C=C(\Oc1cc(-n2cc(F)c(C(C)C)n2)ccc1C)C(=O)OC [Compound E-46, methyl (Z)-2-[5-(4-fluoro-3-isopropyl-pyrazol-1-yl)-2-methyl-phenoxy]-3-methoxy-prop-2-enoate] | ≥ 80 |  | ≥ 80 | ≥ 80 | ≥ 80 | ≥ 80 | ≥ 80 | ≥ 80 | ≥ 80 | ≥ 80 | ≥ 80 | ≥ 80 |  | 111 to 113 |  |  | 
C#Cc1cnn(-c2ccc(C)c(O/C(=C\OC)C(=O)OC)c2)c1 [Compound E-48, methyl (Z)-2-[5-(4-ethynylpyrazol-1-yl)-2-methyl-phenoxy]-3-methoxy-prop-2-enoate] | ≥ 80 | ≥ 80 | ≥ 80 |  | ≥ 80 | ≥ 80 | ≥ 80 | ≥ 80 | ≥ 80 | ≥ 80 | ≥ 80 | ≥ 80 | ≥ 80 |  |  |  | 
CO/C=C(\Oc1cc(-n2cc(I)cn2)ccc1C)C(=O)OC [Compound E-60, methyl (Z)-2-[5-(4-iodopyrazol-1-yl)-2-methyl-phenoxy]-3-methoxy-prop-2-enoate] | ≥ 80 | ≥ 80 | ≥ 80 | ≥ 80 | ≥ 80 | ≥ 80 | ≥ 80 | ≥ 80 | ≥ 80 | ≥ 80 | ≥ 80 | ≥ 80 | ≥ 80 |  |  | ≥ 80 | 
C=C(C)c1ccn(-c2ccc(C)c(O/C(=C\OC)C(=O)OC)c2)n1 [Compound E-65, methyl (Z)-2-[5-(3-isopropenylpyrazol-1-yl)-2-methyl-phenoxy]-3-methoxy-prop-2-enoate] | ≥ 80 | ≥ 80 |  | ≥ 80 | ≥ 80 | ≥ 80 | ≥ 80 | ≥ 80 | ≥ 80 | ≥ 80 | ≥ 80 | ≥ 80 |  | 80 to 84 |  |  | 
CO/C=C(\Oc1cc(-n2ccc(C(F)(F)F)n2)ccc1Cl)C(=O)OC [Compound E-98, methyl (Z)-2-[2-chloro-5-[3-(trifluoromethyl)pyrazol-1-yl]phenoxy]-3-methoxy-prop-2-enoate] | ≥ 80 |  | ≥ 80 | ≥ 80 | ≥ 80 | ≥ 80 | ≥ 80 |  | ≥ 80 | ≥ 80 | ≥ 80 | ≥ 80 | ≥ 80 |  |  | ≥ 80 | ≥ 50
